Data set [1] can be described thus: Free base competitive slurries / form conversion (XRPD and DSC). Format: physicochemical. As to conditions: compound 1 free base, stirred in methanol at room temperature for 24 hours. On the procedure: Free Base Competitive Slurries:
Three competitive slurry experiments were performed:
1: Form A (20.0 mg)+Form C (20.4 mg) in 0.4 ml ethyl acetate
2: Form B (15.7 mg)+Form C (15.6 mg) in 0.3 ml ethyl acetate
3: Form A (13.3 mg)+Form B (11.5 mg) in 0.3 ml ethyl acetate
The three slurries were stirred vigorously for three days. Solids were then filtered and dried.
About 20 mg Form C was stirred in methanol (˜2 mL) at room temperature for 24 hours. Solids were filtered and dried.

A short description of data set [2]: Single oral dose pharmacokinetic (PK) study in dogs, fasted and fed. Format: in vivo. The conditions noted are these: 15 mg/kg oral suspension; for AUC(0-t) / Cmax: both sexes, dog, in vivo, po, 15 mg/kg. On the procedure:
The pharmacokinetics of compound 1 (free base, administered to dosing group 1), compound 2 (phosphate salt, administered to dosing group 4), compound 4 (hydrochloride salt, administered to dosing group 2), compound 5 (bromide salt, administered to dosing group 5), and compound 6 (sulfate salt, administered to dosing group 3) were evaluated in dogs (2/sex/group) in a parallel design study. In addition, the effect of food on the systemic exposure to compounds 1, 2, 4, 5 and 6 was also evaluated. Compounds 1, 2, 4, 5 and 6 were orally administered at 15 mg/kg to dogs in a fasted state (overnight fast) on day 1 and administered under fed conditions (a meal was provided one hour prior to dosing) on day 9. Doses were administered as a suspension in 5% Captisol/0.2% Tween 80/0.05M Citrate buffer (compound 1) and 5% Captisol/0.2% Tween (compounds 2, 4, 5 and 6). Animals were habituated (days 2 to 8) to consume their entire daily ration (˜400 g) in 1 hour. Pharmacokinetic samples were collected on days 1 and 9 at 0, 0.5, 1, 2, 4, 6, 8, 12, and 24 hours after dosing.

The subject of data set [3] is one or both of ERK1 and ERK2 kinases. The conditions noted are these: see Table A of the '230 publication; cited from earlier work.
A short description of data set [4]: Solubility in water at ambient temperature. The data set is classed as physicochemical. As to conditions: for pH at 48 hrs: pH of the solubility sample in water at 48 hrs; for Conc. (μg/mL) at 24 hours / Conc. (μg/mL) at 48 hours: water, ambient temperature, free base-equivalent value, HPLC/UV; for Conc. (μg/mL) at 24 hours: shaken 24 hours; for Conc. (μg/mL) at 48 hours: shaken 48 hours. On the procedure:
Each of compounds 1 through 9 were weighed into separate 8 mL clear glass vials. After addition of 3.2 mL of water, the vials were capped and shaken on an orbital shaker at 300 RPM at ambient temperature for 24 hours. The samples were removed from the shaker and the pH of each was measured using a calibrated pH meter. Next, a portion of the each sample was withdrawn and filtered using a PVDF-membrane syringe filter. The filtrate was analyzed using HPLC/UV with appropriate dilution. The solubility was reported as free base-equivalent value because the free base was used as the standard for HPLC analysis. The rest of the samples were shaken for another 24 hours for 48-hour solubility measurement using the same procedure. After the 48-hour solubility tests were run, the solid residues were recovered through filtration using 0.2 μm Nylon-membrane centrifuge tube filters at 14000 RPM for 5 min and analyzed using XRPD.
For the bis-phosphate complex and bis-sulfate salt, measurements were only performed at the 24-hour time point.

A short description of data set [5]: Hygroscopicity by Dynamic Vapor Sorption (DVS). Format: physicochemical. As to conditions: at 95% relative humidity. On the procedure:
Hygroscopicity was determined on a Surface Measurement Systems DVS-1 or DVS-Advantage Dynamic Vapor Sorption analyzer. A typical sample size of 5 to 20 mg was loaded into the DVS instrument sample pan and the sample was analyzed on a DVS automated sorption analyzer at room temperature. The relative humidity (RH) was increased from 0 or 5% to 90 or 95% RH at 5 or 10% RH steps. The RH was then decreased in a similar manner to accomplish a full absorption/desorption cycle. In some cases a second absorption/desorption cycle was performed.

The nature of data set [6]: Phosphate interconversions from polymorph screen (slurries, XRPD). The data set is classed as physicochemical. The conditions noted are these: RT, 5 days. The text has this:
Phosphate Interconversions

Where [7] appears, read: fasted, day 1, mean, read-out: AUClast, Day 1 (Fasted).
The mark [8] stands for this setting: fasted, day 1, mean, read-out: Cmax, Day 1 (Fasted).
Where [9] appears, read: fed, day 9, mean, read-out: AUClast, Day 9 (Fed).
The mark [10] stands for this setting: fed, day 9, mean, read-out: Cmax, Day 9 (Fed).

Where two headings read alike, the source gives them in different places.

As for `C=CC(=O)Nc1cc(C)ccc1Nc1nc(Nc2cc(OC)ncc2C)ncc1C(F)(F)F` [Compound 1, Form C, N-(2-((2-((2-methoxy-5-methylpyridin-4-yl)amino)-5-(trifluoromethyl)pyrimidin-4-yl)amino)-5-methylphenyl)acrylamide], the “form after slurry (XRPD and DSC)” value in data set [1] is reported as “converted to Form B”. In data set [2] (fasted, day 1, mean), the “AUClast, Day 1 (Fasted)” value came out at 286 ng·h/mL and the “Cmax, Day 1 (Fasted)” value was determined as 0.0981 µg/mL. Also, in data set [2] (fed, day 9, mean), the “AUClast, Day 9 (Fed)” value stood at 1890 ng·h/mL and the “Cmax, Day 9 (Fed)” value was found to be 0.293 µg/mL.
For the molecule `C=CC(=O)Nc1cc(C)ccc1Nc1nc(Nc2cc(OC)ncc2C)ncc1C(F)(F)F` [Compound 1, N-(2-((2-((2-methoxy-5-methylpyridin-4-yl)amino)-5-(trifluoromethyl)pyrimidin-4-yl)amino)-5-methylphenyl)acrylamide], in data set [3], the “inhibition of one or both of ERK1 and ERK2 kinases” value is reported as “covalent, irreversible inhibition”. Moreover, in data set [4], the “pH at 48 hrs” value amounted to 6.33, the “Conc. (μg/mL) at 24 hours” value was 0.07 µg/mL and the “Conc. (μg/mL) at 48 hours” value was found to be 0.05 µg/mL.
The term Cmax denotes the highest concentration seen after dosing. As to `C=CC(=O)Nc1cc(C)ccc1Nc1nc(Nc2cc(OC)ncc2C)ncc1C(F)(F)F.O=P(O)(O)O` [Compound 2, Form A], the results for the AUC(0-t) in data set [2] (setting [7]) and in data set [2] (setting [9]) were 1080 ng·h/mL and 3880 ng·h/mL, respectively. For the same molecule, the figures for the Cmax in data set [2] (setting [8]) and in data set [2] (setting [10]) were 0.345 µg/mL and 0.79 µg/mL, respectively. The water uptake result in data set [5] is listed as “Up to 3.8%”.
For the molecule `C=CC(=O)Nc1cc(C)ccc1Nc1nc(Nc2cc(OC)ncc2C)ncc1C(F)(F)F.O=P(O)(O)O` [Compound 2], in data set [4], the “pH at 48 hrs” value was found to be 2.48, the “Conc. (μg/mL) at 24 hours” value was determined as 19.40 µg/mL and the “Conc. (μg/mL) at 48 hours” value came to 91.69 µg/mL.
As to `C=CC(=O)Nc1cc(C)ccc1Nc1nc(Nc2cc(OC)ncc2C)ncc1C(F)(F)F` [Compound 3], the “Conc. (μg/mL) at 24 hours” value in data set [4] worked out at 113 µg/mL.
With `C=CC(=O)Nc1cc(C)ccc1Nc1nc(Nc2cc(OC)ncc2C)ncc1C(F)(F)F.Cl` [Compound 4, Form A], the AUC(0-t) was 856 ng·h/mL in data set [2] (setting [7]) and 3350 ng·h/mL in data set [2] (setting [9]). Moreover, the Cmax was found to be 0.323 µg/mL in data set [2] (setting [8]) and 0.818 µg/mL in data set [2] (setting [10]).
As for `C=CC(=O)Nc1cc(C)ccc1Nc1nc(Nc2cc(OC)ncc2C)ncc1C(F)(F)F.Cl` [Compound 4], in data set [4], the “pH at 48 hrs” value was found to be 2.29, the “Conc. (μg/mL) at 24 hours” value was 162.33 µg/mL and the “Conc. (μg/mL) at 48 hours” value turned out to be 134.08 µg/mL.
Consider `Br.C=CC(=O)Nc1cc(C)ccc1Nc1nc(Nc2cc(OC)ncc2C)ncc1C(F)(F)F` [Compound 5, Form A], for which the AUC(0-t) in data set [2] (setting [7]) was 1680 ng·h/mL; in data set [2] (setting [9]), 5030 ng·h/mL. For the same molecule, the peak concentration (Cmax) is 0.393 µg/mL in data set [2] (setting [8]) and 0.826 µg/mL in data set [2] (setting [10]).
Consider `Br.C=CC(=O)Nc1cc(C)ccc1Nc1nc(Nc2cc(OC)ncc2C)ncc1C(F)(F)F` [Compound 5], for which, in data set [4], the “pH at 48 hrs” value amounted to 2.27, the “Conc. (μg/mL) at 24 hours” value is 190.63 µg/mL and the “Conc. (μg/mL) at 48 hours” value was 207.42 µg/mL.
Regarding `C=CC(=O)Nc1cc(C)ccc1Nc1nc(Nc2cc(OC)ncc2C)ncc1C(F)(F)F` [Compound 6, Form A], in data set [2] (fasted, day 1, mean), the “AUClast, Day 1 (Fasted)” value came to 1120 ng·h/mL and the “Cmax, Day 1 (Fasted)” value worked out at 0.364 µg/mL. In data set [2] (fed, day 9, mean), the “AUClast, Day 9 (Fed)” value is 5590 ng·h/mL and the “Cmax, Day 9 (Fed)” value was 0.74 µg/mL.
For the molecule `C=CC(=O)Nc1cc(C)ccc1Nc1nc(Nc2cc(OC)ncc2C)ncc1C(F)(F)F` [Compound 6], in data set [4], the “pH at 48 hrs” value was determined as 1.98, the “Conc. (μg/mL) at 24 hours” value came to 560.02 µg/mL and the “Conc. (μg/mL) at 48 hours” value worked out at 409.83 µg/mL.
In the case of `C=CC(=O)Nc1cc(C)ccc1Nc1nc(Nc2cc(OC)ncc2C)ncc1C(F)(F)F` [Compound 7], the “Conc. (μg/mL) at 24 hours” value in data set [4] was 1170 µg/mL.
On to `C=CC(=O)Nc1cc(C)ccc1Nc1nc(Nc2cc(OC)ncc2C)ncc1C(F)(F)F.Cc1ccc(S(=O)(=O)O)cc1` [Compound 8], for which, in data set [4], the “pH at 48 hrs” value is 2.00, the “Conc. (μg/mL) at 24 hours” value turned out to be 218.34 µg/mL and the “Conc. (μg/mL) at 48 hours” value amounted to 184.83 µg/mL.
In the same order, the values of `C=CC(=O)Nc1cc(C)ccc1Nc1nc(Nc2cc(OC)ncc2C)ncc1C(F)(F)F.O=S(=O)(O)c1ccccc1` [Compound 9] are 2.10, 173.63 µg/mL and 143.49 µg/mL.
For the molecule `C=CC(=O)Nc1cc(C)ccc1Nc1nc(Nc2cc(OC)ncc2C)ncc1C(F)(F)F.O=P(O)(O)O` [Form B], the “XRPD Result” value in data set [6] (slurry in EtOH) is recorded as “Form A + free base”; in data set [6] (slurry in MeCN), “Form A”; in data set [6] (slurry in MeCN/water (1:1)), “free base (Form D)”; in data set [6] (slurry in MeOH), “free base (Form B)”; in data set [6] (slurry in acetone) it was “Form A”.

The values above are taken from patent publication US10202364B2, “Forms and compositions of an ERK inhibitor” (Celgene CAR LLC, priority 2014, dated 2019).
